Laboratory results taken from US6566081B1, “Methods of identifying a compound which modulates the non-transcriptional non-map-kinase induced effects of steroid hormones” (The Brigham and Women's Hospital, Inc., priority 1999, dated 2003).
“Also recorded” adds a separate entry of the source.

What was measured:
[1] = system: mouse cremaster muscle venules; experiment: Model of vascular injury: ischemia and reperfusion in the mouse cremaster muscle (leukocyte rolling and adhesion); assay type: in vivo; details: wortmannin 100 nM or L-NAME 0.1 mM during ischemia
Procedure: (§1) Mice were anesthetized and the cremaster muscle was studied under intravital microscopy^28. Ischemia was induced by applying pressure to supplying arteries just sufficient to stop blood flow for 30 min. In some experiments, wortmannin (100 nM) or L-NAME (0.1 mM) was applied to the cremaster muscle during the ischemic period. The pressure was released for reperfusion, and the same vessels were recorded in each animal before and after I/R. The rolling velocities of 25 leukocytes were measured in each venule; sorted and averaged for each rank to construct cumulative histograms. The velocities of 3,750 leukocytes were measured in 150 venules before and after I/R. The number of firmly adherent leukocytes was measured before and after I/R in the same 200 μm long segments of venules.

eNOS [2] = target: T1, eNOS (Mus musculus, UniProt P70313); experiment: Cremaster eNOS activity in mice; assay type: in vivo; details: L-NAME 0.1 mM, E2-treated mice
T1 construct: from tissue; host or cells: cremaster muscle of male C57BL/6 mice
Procedure: as §1, with “venules. The following number of venules were studies for leukocyte adhesion: Untreated, 15 venules; E2-treated, 20 venules; E2-treated with wortmannin, 25 venules; E2-treated with L-NAME, 15 venules. Cremaster eNOS activity was measured in 3 untreated, 4 E2-treated, 5 E2-treated with wortmannin, and 4 E2-treated with L-NAME mice.” for “venules.”

PI3-kinase = PI3-kinase assay on p85 immunoprecipitates of endothelial cell lysates; assay type: cell-based, human; details: E2 10 nM 20 min; ICI 10 μM, wortmannin 30 nM
Procedure: PI3kinase activity in endothelial cell lysates was assayed using the borate thin layer chromatography method, as described.^34 Following a 6 h incubation in serum- and estrogen-deficient medium 199, endothelial cells were treated according to the indicated conditions, washed, and harvested in ice-cold lysis buffer (137 mM NaCl, 20 mM Tris-HCl, pH 7.4, 1 mM CaCl2, 1 mM Mg Cl2, 0.1 mM Na3VO4, 1% NP-40). After pelleting the cell debris, the supernatant was incubated for 1 hour at 4° C. with 5 μL of a rabbit antiserum directed against the p85 regulatory subunit of the PI3-kinase (Upstate Biotechnology, Lake Placid, N.Y.), and immunoprecipitated with the addition of 50 μL of a 1:1 slurry of protein A-agarose for 1 hour at 4° C. Following centrifugation, the immunoprecipitates were washed three times with lysis buffer, three times with 0.1 M Tris-HCl, pH 7.4, 5 mM LiCl, 0.1 mM Na3VO4, followed by two washes with 10 mM Tris-HCl, pH 7.4, 150 mM NaCl, 5 mM EDTA, 0.1 mM Na3VO4.
The immunoprecipitates were then mixed with 50 μL Tris-HCl, pH 7.4, 150 mM NaCl, 5 mM EDTA, 20 μg of phosphatidylinositol (Sigma, Saint Louis, Mo.), 10 μL 100 mM MgCl2 and 5 μL of a 0.88 mM ATP, 20 mM MgCl2 solution, containing 30 μCi of [γ-^32P]ATP (3000 Ci/mmol; NEN Life Science Products, Boston, Mass.). […] The phospholipids were extracted with 160 μL of chloroform/methanol (1:1, v/v). 50 μL of the organic phase, containing the labeled PI3-kinase products were separated by borate thin layer chromatography on glass-backed Silica Gel 60 plates (EM Separations, Gibbstown, N.J.) pretreated with a solution containing 25 mM trans-1,2-diaminocyclohexane-N,N,N′N′-tetraacetic acid (CDTA, Sigma, Saint Louis, Mo.), 66% (v/v) ethanol and 0.06 N NaOH, dried for 1 hour and then baked at 100° C. for 15 minutes. The chromatography was developed with a solution containing 37.5% (v/v) methanol, 30% (v/v) chloroform, 22.5% (v/v) pyridine (Sigma, Saint Louis, Mo.), 1.33% (v/v) formic acid, […] boric acid and 8.5 mM butylated hydroxytoluene (Sigma, Saint Louis, Mo.), briefly dried and exposed to autoradiography.

ER-α / PI3-kinase p85α = target: T2, ER-α / PI3-kinase p85α (Homo sapiens, UniProt P03372); experiment: ER-α immunoprecipitation: co-precipitated p85α and associated PI3-kinase activity; assay type: cell-based; details: ICI 10 μM, wortmannin, tamoxifen 1 μM, PD 98059 5 μM, actinomycin D 5 μM
T2 construct: endogenous in cells; host or cells: human endothelial cells (HSVEC), anti-ERα immunoprecipitate
T2 sequence (P03372 1-595): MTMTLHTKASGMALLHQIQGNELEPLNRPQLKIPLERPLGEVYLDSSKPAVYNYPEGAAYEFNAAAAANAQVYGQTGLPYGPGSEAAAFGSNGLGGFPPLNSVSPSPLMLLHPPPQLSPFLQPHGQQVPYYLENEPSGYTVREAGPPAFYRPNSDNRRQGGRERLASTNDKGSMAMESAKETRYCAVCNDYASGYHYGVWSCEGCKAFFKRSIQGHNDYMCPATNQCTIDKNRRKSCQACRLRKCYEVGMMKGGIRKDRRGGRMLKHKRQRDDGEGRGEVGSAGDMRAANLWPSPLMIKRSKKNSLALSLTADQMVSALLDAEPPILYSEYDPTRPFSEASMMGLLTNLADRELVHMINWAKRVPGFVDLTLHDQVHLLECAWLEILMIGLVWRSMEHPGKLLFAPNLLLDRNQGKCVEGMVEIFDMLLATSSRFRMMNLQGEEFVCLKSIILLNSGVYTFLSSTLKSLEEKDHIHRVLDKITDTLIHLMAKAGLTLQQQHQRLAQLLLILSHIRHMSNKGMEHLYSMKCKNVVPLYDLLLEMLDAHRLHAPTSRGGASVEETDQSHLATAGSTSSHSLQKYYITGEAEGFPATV

ERK 1 and 2 = experiment: Immunoblotting of ERK 1/2 phosphorylation; assay type: cell-based, human; details: E2 10 nM, PD 98059 5 μM
Procedure: After the different treatments, serum-starved endothelial cells were rinsed once with ice-cold PBS before addition of the lysis buffer (100 mM Tris-HCl, pH 6.8, 4% SDS, 20% glycerol, 1 mM sodium orthovanadate, 1 mM NaF, and 1 mM phenylmethylsulfonylfluoride) to the dishes on an ice tray. The cell lysates were scraped, boiled, and centrifuged for 2 min at 13000 rpm. Total cell lysates (40 μg of protein) and low range molecular weight markers (BIO-RAD, Hercules, Calif.) were separated by SDS-polyacrylamide gel electrophoresis (12% running, 4% stacking), electrophoretically transferred to polyvinylidene fluoride membranes (Immobilon P, 0.45 μm pore size) and incubated overnight at 4° C. with blocking solution (5% skim milk in TBS—0.1% Tween 20). Affinity-purified rabbit antibodies (0.4 μg of IgG/ml) vs. Akt, (Ser 473) phospho-Akt or (Thr 308) phospho-Akt (New England BioLabs, Beverly, Mass.), Erk1/2, (Tyr 204) phospho-Erk-1/-2 (Calbiochem, San Diego, Calif.) were incubated with the membranes overnight at 4° C. in TBS—0.1% Tween 20 containing 5% BSA. The blots were washed three times with TBS—0.1% Tween 20 and then treated with donkey anti-rabbit antibody (1:4000 dilution) coupled to horseradish peroxidase. Immunodetection was accomplished using the enhanced chemoluminescence kit (ECL Kit, Amersham Corp.).

eNOS [3] = experiment: eNOS activity assay (conversion of [3H]-arginine to [3H]-citrulline) in treated human endothelial cells; assay type: cell-based; details: E2 10 nM, wortmannin 30 nM, genistein 50 μM, PD98059 5 μM; for effect on E2-stimulated eNOS activity, later phase (≥15 min) or 30 min: ICI 10 μM, actinomycin D 2 h pretreatment
Procedure: Fetal bovine serum was deprived of estrogen by charcoal-stripping. Once grown to confluence the cells were replated on 1.5% gelatin-coated flasks at 20000 cells/cm^2. […] Cell number was assessed by direct cell counting of adherent cells, after trypsin detachment, in a Neubauer hemocytometer (VWR Scientifics). The percentage of cells excluding Trypan Blue after staining with the compound was taken as a measure of cell viability.
Endothelial cells were grown to confluence on 55 cm^2 culture dishes, treated according to the indicated conditions, and harvested in ice-cold PBS containing 1 mM EDTA. The cell lysates were pelleted in a microfuge (2 minutes, 13000 rpm, 4° C.) and subsequently homogenized in a buffer containing 25 mM Tris-HCl, pH 7.4, 1 mM EDTA, 1 mM EGTA. eNOS activity was determined by measuring the conversion of [^3H]-arginine to [^3H]-citrulline. Rat cerebellum extracts, containing elevated amounts of neuronal NOS, were used as positive controls, while endothelial cell extracts incubated in the presence of the competitive eNOS inhibitor L-NAME (1 mM) served as negative controls.
Human and bovine aortic endothelial cells were harvested enzymatically with Type IA collagenase (1 mg/mL).

ERα-p85α interaction = target: T3, ERα-p85α interaction (Homo sapiens, UniProt P03372); experiment: GST fusion protein-affinity purification (GST-p85α and recombinant ERα, cell-free); assay type: binding; details: recombinant ERα, Hsp90 0.5 μg
T3 construct: purchased Panvera (ERα)
Procedure: Human recombinant GST-p85α fusion protein or GST (Sigma, St. Louis, Mo.) bound to glutathione-agarose beads (1 μg protein/20 μL beads) were suspended in 400 μL of E. Coli protein extract solution (10 mg/mL) and incubated with 1 μg human recombinant ERα (Panvera, Madison, Wis.) for 1 h at 4° C. The samples were pelleted, and the beads were washed 5 times with a buffer containing 50 mM potassium phosphate, pH 7.5, 150 mM KCl, 1 mM MgCl2, 10% (v/v) glycerol, 1% (v/v) Triton X-100 plus protease inhibitors. The beads were re-suspended in 50 μL of 2×Laemmli's buffer and boiled for 5 min. Proteins were separated on SDS-polyacrylamide gel electrophoresis.

T3 sequence (P27986 whole entry partner, one chain of several, the tested form may be a part): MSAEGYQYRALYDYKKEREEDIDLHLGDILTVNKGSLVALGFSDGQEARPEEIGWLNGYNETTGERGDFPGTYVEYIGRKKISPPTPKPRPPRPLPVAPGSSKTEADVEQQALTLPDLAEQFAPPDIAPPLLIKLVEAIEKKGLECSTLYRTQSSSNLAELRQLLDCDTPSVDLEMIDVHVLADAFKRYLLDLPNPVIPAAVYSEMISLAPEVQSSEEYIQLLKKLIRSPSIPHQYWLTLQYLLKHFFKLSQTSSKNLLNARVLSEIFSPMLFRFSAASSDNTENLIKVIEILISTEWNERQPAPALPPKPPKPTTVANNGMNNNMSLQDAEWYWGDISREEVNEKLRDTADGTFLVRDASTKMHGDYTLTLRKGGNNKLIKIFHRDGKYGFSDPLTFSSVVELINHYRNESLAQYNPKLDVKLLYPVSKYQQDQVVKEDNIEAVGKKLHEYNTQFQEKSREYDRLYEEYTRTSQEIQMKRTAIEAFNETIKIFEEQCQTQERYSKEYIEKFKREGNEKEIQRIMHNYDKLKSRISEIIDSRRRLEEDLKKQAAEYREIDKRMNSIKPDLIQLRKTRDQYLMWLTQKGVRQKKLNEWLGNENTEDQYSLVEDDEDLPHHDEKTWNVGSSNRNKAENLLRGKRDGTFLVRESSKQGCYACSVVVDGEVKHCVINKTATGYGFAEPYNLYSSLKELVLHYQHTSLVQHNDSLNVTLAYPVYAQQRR
T1 sequence (P70313 2-1202): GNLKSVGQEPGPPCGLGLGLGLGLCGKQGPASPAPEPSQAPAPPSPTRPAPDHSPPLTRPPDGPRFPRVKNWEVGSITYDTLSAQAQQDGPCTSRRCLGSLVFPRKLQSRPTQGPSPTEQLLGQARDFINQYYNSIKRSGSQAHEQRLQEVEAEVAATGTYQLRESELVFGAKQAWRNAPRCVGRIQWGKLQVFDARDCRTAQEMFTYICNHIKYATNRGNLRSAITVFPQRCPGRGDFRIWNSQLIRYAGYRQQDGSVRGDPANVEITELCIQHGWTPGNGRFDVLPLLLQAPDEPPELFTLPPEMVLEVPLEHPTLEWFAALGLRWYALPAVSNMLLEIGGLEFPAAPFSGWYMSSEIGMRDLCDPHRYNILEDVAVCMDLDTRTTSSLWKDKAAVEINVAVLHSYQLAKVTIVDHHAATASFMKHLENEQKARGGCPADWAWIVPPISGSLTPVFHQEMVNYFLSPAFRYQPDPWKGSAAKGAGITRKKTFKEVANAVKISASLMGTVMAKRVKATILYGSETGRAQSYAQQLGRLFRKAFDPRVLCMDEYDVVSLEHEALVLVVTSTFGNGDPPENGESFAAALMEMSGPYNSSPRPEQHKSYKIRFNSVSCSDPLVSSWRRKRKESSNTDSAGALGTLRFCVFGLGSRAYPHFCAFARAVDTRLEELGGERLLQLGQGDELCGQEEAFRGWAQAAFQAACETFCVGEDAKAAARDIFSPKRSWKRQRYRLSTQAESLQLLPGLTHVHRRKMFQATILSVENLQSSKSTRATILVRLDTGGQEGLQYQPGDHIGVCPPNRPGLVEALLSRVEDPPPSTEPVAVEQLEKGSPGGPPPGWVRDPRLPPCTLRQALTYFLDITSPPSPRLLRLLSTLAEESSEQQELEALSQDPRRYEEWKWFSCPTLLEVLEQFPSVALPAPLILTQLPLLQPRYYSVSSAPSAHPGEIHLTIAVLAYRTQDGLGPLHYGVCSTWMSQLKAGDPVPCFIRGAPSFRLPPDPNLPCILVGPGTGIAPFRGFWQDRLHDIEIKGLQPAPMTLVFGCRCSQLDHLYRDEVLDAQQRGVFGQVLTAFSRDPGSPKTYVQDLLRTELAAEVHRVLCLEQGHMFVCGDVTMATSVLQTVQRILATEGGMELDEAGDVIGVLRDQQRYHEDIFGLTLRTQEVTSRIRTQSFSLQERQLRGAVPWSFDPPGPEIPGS

COC(=O)[C@@H](N)CCCNC(=N)N[N+](=O)[O-] [L-NAME, L-nitroarginine methylester]
leukocyte rolling velocity and accumulation, untreated vs E2-treated mice following I/R, with inhibitor applied to the cremaster muscle [1]: not different | effect of applied inhibitor on cremaster eNOS activity (eNOS [2]): decreased eNOS activity below that of untreated mice

COc1cccc(-c2cc(=O)c3ccccc3o2)c1N [PD98059]
effect on E2-induced PI3-kinase activation (PI3-kinase): only minimally affected | effect on E2-stimulated ER-α-associated PI3-kinase activity (ER-α / PI3-kinase p85α): not | effect on E2-stimulated ERK-1 and -2 phosphorylation (ERK 1 and 2): inhibited | effect on E2-stimulated ERK-1 and -2 phosphorylation (ERK 1 and 2; listed as PD 98059): abolished | effect on E2-stimulated eNOS activity, later phase (≥15 min) or 30 min (eNOS [3]): only minimally affected; also recorded: not the later phase; also recorded: little or no inhibitory effect | effect on E2-stimulated eNOS activity, later phase (≥15 min) or 30 min (eNOS [3]; listed as PD 98059): do not block | effect on E2-stimulated eNOS activity, initial phase (first 5-10 min) (eNOS [3]): able to block; also recorded: significantly blocked | effect on E2-stimulated eNOS activity, initial phase (first 5-10 min) (eNOS [3]; listed as PD 98059): blunt

Heat shock protein 90: heat shock protein that binds and facilitates the function of ER and eNOS
effect on interaction of ERα and p85α (ERα-p85α interaction): inhibited | effect on interaction of ERα and p85α (ERα-p85α interaction; listed as Hsp90): inhibits
